# Columns and labels:
# [1] = test system: human smooth muscle cells; assay type: cell-based
# Protocol: A—VSMCs were incubated in the absence or presence of high Ca/P (2.5 mM Ca and 2.5 mM P) in 2% FBS/M199 media for 5 days and subjected to alizarin D staining Quantification shown graphically in B. Mean±SD, n=3. C—pictures of VSMCs were taken using light microscopy of alizarin-D stained VSMCs. 1.5—BSA control; 2.6−+5 mM GW4869; 3.7−+1.3% DSMO; 4.8−+1 uM Y-27632.
# [2] = test system: human smooth muscle cells; assay: Matrix vesicle release by VSMCs (western blot of CD63 and Fetuin A in MV lysates, CD63 densitometry); assay type: cell-based; conditions: matrix vesicle markers CD63 and Fetuin A in MV lysates, n=3
# Protocol: Panel B, quantification of matrix vesicle release by VSMCs was performed using densitometry analysis of CD63, presented in MV as defined by western-blot analysis (shown in A). Mean±SD, n=3.
SMILES,"calcification of VSMCs ([1]; high Ca/P (2.5 mM Ca and 2.5 mM P), media with 2% serum, 5 days, 5 mM GW4869, 1 uM Y-27632)",matrix vesicles release by human smooth muscle cells [2],number of VSMCs in wells [1],apoptosis of GW4869-treated VSMCs with high Ca and P compared with without (VSMCs)
C[C@@H](N)[C@H]1CC[C@H](C(=O)Nc2ccncc2)CC1 [Y 27632],had no effect,–,–,–
Cl.Cl.O=C(/C=C/c1ccc(/C=C/C(=O)Nc2ccc(C3=NCCN3)cc2)cc1)Nc1ccc(C2=NCCN2)cc1 [GW4869],–,inhibition of matrix vesicles release,dramatic reduction in the number of VSMCs,not increased

# Source: patent US8993247B2, “Assay for vascular calcification” (King's College London, priority 2010, dated 2015)
